Experimental data: ChEMBL document CHEMBL4706505, “F10, a new camptothecin derivative, was identified as a new orally-bioavailable, potent antitumor agent” (Eur J Med Chem, 2020)

Experiments:
HeLa = assay: Cytotoxicity against human Hela assessed as reduction in cell viability measured after 72 hrs by MTT assay; format: functional, cell-based
HCT-116 = assay: Induction of apoptosis in human HCT-116 cells assessed as early apoptotic cells level at 0.001 uM incubated for 24 hrs by Annexin V-FITC/PI staining based flow cytometry (reference value: 0.17%); format: functional
[1] = Toxicity in NPG mouse xenografted with human Raji cells assessed as body weight loss at 4 mg/kg, ip measured on the day 1; format: organism-based; conditions: in vivo
Raji [2] = assay: Antitumor activity against NPG mouse xenografted with human Raji cell assessed as decrease in tumor volume at 4 mg/kg, ig measured on the 1 day; format: functional
Raji [3] = assay: Antitumor activity against NPG mouse xenografted with human Raji cell assessed as decrease in tumor volume at 8 mg/kg, ig measured after 5 day; format: functional
Raji [4] = assay: Antitumor activity against NPG mouse xenografted with human Raji cell assessed as tumor growth inhibition at 8 mg/kg, ig measured after 5 day; format: functional; conditions: po, 120 h, read-out: TGI
[5] = Cmax in nude BALB/c mouse serum at 8.0 mg/kg incubated up to 9 hrs, iv administered […] by LC-MS/MS analysis; format: ADME, organism-based; design: route intravenous, dose 8 mg/kg, time <=9
[6] = AUC (0 to infinity) in nude BALB/c mouse serum at 8.0 mg/kg incubated up to 9 hrs, iv administered […] by LC-MS/MS analysis; format: ADME, organism-based; design: route intravenous, dose 8 mg/kg, time <=9; conditions: in vivo

CCc1c2c(nc3ccc(OCC(=O)N4CCCCC4)cc13)-c1cc3c(c(=O)n1C2)COC(=O)[C@]3(O)CC
IC50 (HeLa): 125 nM
Activity (HCT-116): 4.92%
Activity [1]: 24.8 g
Activity (Raji [2]): 900 mm3
Activity (Raji [3]): 1374 mm3
inhibition in vivo at 8 mg/kg (Raji [4]): 81.3%
Cmax [5]: 1630 ng/mL
AUC [6]: 748.96 h/ng/mL
